This note sets out measurements from patent publication US20170107179A1 (Tetraphase Pharmaceuticals, Inc., priority 2010, published 2017).

≈ marks a conversion by molar mass, not a printed value. Read-outs that look alike come from different tables or passages of the source.

For one assay, the system named is Gram-positive pathogens. Nature of the assay: Broth microdilution MIC, respiratory/skin pathogens (Table 12). The settings on record: E. faecalis, VAN S (n = 53). On the technique in general: Dilution methods test growth across graded concentrations, often in twofold steps.
The test system of assay [1] is Gram-negative and Gram-positive organisms (clinical isolates). The assay is described as follows: Broth microdilution MIC against clinical isolates (CLSI M7-A8), Table 9. In kind it is cell-based.
For assay [2], the system named is Legionella pneumophila, 70 isolates, serogroups 1-6. The assay is described as follows: microbe, parasite or virus in culture. In kind it is cell-based.
For the next assay, the system named is E. coli DH10B EC969 TetM. Nature of the assay: MIC, E. coli DH10B recombinantly expressing tetracycline-resistance gene. The settings on record: arabinose-induced, ampicillin in medium.
The test system of a further assay is E. coli DH10B EC971 LacZ. The assay is described as follows: MIC, E. coli DH10B recombinantly expressing control gene. The settings on record: E. coli DH10B, arabinose-induced, ampicillin in medium.
Assay [3] has as its system E. coli DH10B EC1153 Tet(X). The assay is described as follows: MIC, E. coli DH10B recombinantly expressing tetracycline-resistance gene. The conditions noted are these: arabinose-induced, ampicillin in medium.
Another assay has as its system E. coli DH10B EC970 TetK. The assay is described as above. The conditions noted are these: arabinose-induced, ampicillin in medium.
Assay [4] relates to E. coli DH10B EC1082 TetA. The assay is described as above. The conditions noted are these: arabinose-induced, ampicillin in medium.
Assay [5] relates to E. coli DH10B EC1083 TetB. The assay is described as above. The conditions noted are these: arabinose-induced, ampicillin in medium.
Another assay deals with S. aureus Smith. The assay is described as follows: Mouse systemic infection (septicemia) model, CD-1 mice. The settings on record: Staphylococcus aureus, in Mus musculus, 48 h; for responders at 3 mg/kg: iv, read-out: Percent survival at 48 hours, IV (3 mg/kg); for responders at 30 mg/kg: po, read-out: Percent survival at 48 hours, PO (30 mg/kg).

Turning to `CCC[C@@H]1C[C@@H](C(=O)N[C@@H]([C@H]2O[C@H](SC)[C@H](O)[C@@H](O)[C@H]2O)[C@H](C)Cl)N(C)C1` [Clindarnycin], in the assay with Gram-positive pathogens, the MIC50 was over 2 µg/mL and the MIC90 is over 2 µg/mL.
Consider `CC[C@H]1OC(=O)[C@H](C)[C@@H](O[C@H]2C[C@@](C)(OC)[C@@H](O)[C@H](C)O2)[C@H](C)[C@@H](O[C@@H]2O[C@H](C)C[C@H](N(C)C)[C@H]2O)[C@](C)(O)C[C@@H](C)C(=O)[C@H](C)[C@@H](O)[C@]1(C)O` [Erythromycin], for which the MIC50 in [1] is 0.03 µg/mL (≈ 0.0409 µM); in [1] (Staphylococcus aureus), over 4 µg/mL; in [1] (Streptococcus anginosus) it was 0.03 µg/mL (≈ 0.0409 µM); in assay [1] (Streptococcus intermedius), 0.06 µg/mL (≈ 0.0818 µM); in assay [1] (Streptococcus mitis), over 0.5 µg/mL; in [2], 0.25 µg/mL (≈ 0.341 µM). Also, the MIC90 was over 0.5 µg/mL in assay [1]; over 4 µg/mL in [1] (Staphylococcus aureus); over 0.5 µg/mL in assay [1] (Streptococcus anginosus); over 0.5 µg/mL in assay [1] (Streptococcus intermedius); over 0.5 µg/mL in [1] (Streptococcus mitis); 0.5 µg/mL (≈ 0.681 µM) in assay [2].
`CO/N=C(\C(=O)N[C@@H]1C(=O)N2C(C(=O)O)=C(CSc3nc(=O)c(=O)[nH]n3C)CS[C@H]12)c1csc(N)n1` [Ceftriaxone]: the “MIC EC969 TetM” value with E. coli DH10B EC969 TetM was found to be 0.5. Further, the “MIC EC971 LacZ” value in the assay on E. coli DH10B EC971 LacZ was determined as 0.125. Besides, the “MIC EC1153 Tet(X)” value in assay [3] turned out to be 0.125. Further, the “MIC EC970 TetK” value in the assay with E. coli DH10B EC970 TetK was determined as 0.0625. Moreover, the “MIC EC1082 TetA” value in assay [4] came to 0.0625. The “MIC EC1083 TetB” value in [5] stood at 0.0625.
Take `CC(C)C[C@@H]1CNc2c(O)c3c(c(F)c2CN1)C[C@H]1C[C@H]2[C@H](N(C)C)C(O)=C(C(N)=O)C(=O)[C@@]2(O)C(O)=C1C3=O` [Compound 408]: in the assay with S. aureus Smith, the responders at 3 mg/kg was found to be 100% and the responders at 30 mg/kg was found to be 0%.
Turning to `CN(C)[C@@H]1C(O)=C(C(N)=O)C(=O)[C@@]2(O)C(O)=C3C(=O)c4c(O)c5c(c(F)c4C[C@H]3C[C@@H]12)CN(C(C)(C)C1CC1)C5` [Compound 118], in the assay with S. aureus Smith, the responders at 3 mg/kg was 17% and the responders at 30 mg/kg came out at 50%.
For `CC(C)CN1CC(=O)Nc2c(O)c3c(c(F)c2C1)C[C@H]1C[C@H]2[C@H](N(C)C)C(O)=C(C(N)=O)C(=O)[C@@]2(O)C(O)=C1C3=O` [Compound 400] the same measures were 100% and 0%.
Taken in the same sequence, the figures for `CC(C)N1Cc2c(O)c3c(c(F)c2C1)C[C@H]1C[C@H]2[C@H](N(C)C)C(O)=C(C(N)=O)C(=O)[C@@]2(O)C(O)=C1C3=O` [Compound 143] were 83% and 100%.
Taken in the same sequence, the figures for `CCC(C)(C)N1Cc2c(O)c3c(c(F)c2C1)C[C@H]1C[C@H]2[C@H](N(C)C)C(O)=C(C(N)=O)C(=O)[C@@]2(O)C(O)=C1C3=O` [Compound 129] were 50% and 0%.
As to `C[C@@H](O)[C@H]1C(=O)N2C(C(=O)O)=C(SCCN=CN)C[C@H]12` [Imipenern], in the assay on Gram-positive pathogens, the MIC50 was 1 µg/mL (≈ 3.34 µM) and the MIC90 is 1 µg/mL (≈ 3.34 µM).
With `CCC(C)(C)N1Cc2c(O)c3c(c(Cl)c2C1)C[C@H]1C[C@H]2[C@H](N(C)C)C(O)=C(C(N)=O)C(=O)[C@@]2(O)C(O)=C1C3=O` [Compound 150], in the assay with S. aureus Smith, the responders at 3 mg/kg is 0% and the responders at 30 mg/kg came to 0%.
As for `CN(C)[C@@H]1C(O)=C(C(N)=O)C(=O)[C@@]2(O)C(O)=C3C(=O)c4c(O)c5c(c(F)c4C[C@H]3C[C@@H]12)CN(C1CCC1)C5` [Compound 132], in the assay on S. aureus Smith, the responders at 3 mg/kg was 50% and the responders at 30 mg/kg is 50%.
For the compound `CN(C)[C@@H]1C(O)=C(C(N)=O)C(=O)[C@@]2(O)C(O)=C3C(=O)c4c(O)c5c(c(F)c4C[C@H]3C[C@@H]12)CN1CCC[C@H]1C(=O)N5` [Compound 412], in the assay on S. aureus Smith, the responders at 3 mg/kg is 100% and the responders at 30 mg/kg was 40%.
As to `CCC(C)(C)N1Cc2c(O)c3c(c(OC)c2C1)C[C@H]1C[C@H]2[C@H](N(C)C)C(O)=C(C(N)=O)C(=O)[C@@]2(O)C(O)=C1C3=O` [Compound 119], in the assay with S. aureus Smith, the responders at 3 mg/kg worked out at 83% and the responders at 30 mg/kg was determined as 75%.
For `CCCN1CCc2c(O)c3c(c(F)c2C1)C[C@H]1C[C@H]2[C@H](N(C)C)C(O)=C(C(N)=O)C(=O)[C@@]2(O)C(O)=C1C3=O` [Compound 304] the same measures were 0% and 17%.
Taken in the same sequence, the figures for `CN(C)[C@@H]1C(O)=C(C(N)=O)C(=O)[C@@]2(O)C(O)=C3C(=O)c4c(O)c5c(c(F)c4C[C@H]3C[C@@H]12)CN(C(=O)CN1CC[C@H](F)C1)C5` [Compound 147] were 83% and 0%.
For `CC[C@H](C)N1Cc2c(O)c3c(c(Cl)c2C1)C[C@H]1C[C@H]2[C@H](N(C)C)C(O)=C(C(N)=O)C(=O)[C@@]2(O)C(O)=C1C3=O` [Compound 110] the same measures were 33% and 50%.
In the case of `CC(C)[C@H](C)N1Cc2c(O)c3c(c(F)c2C1)C[C@H]1C[C@H]2[C@H](N(C)C)C(O)=C(C(N)=O)C(=O)[C@@]2(O)C(O)=C1C3=O` [Compound 137], in the assay on S. aureus Smith, the responders at 3 mg/kg worked out at 33% and the responders at 30 mg/kg came to 33%.
On to `CC(C)C[C@@H]1C(=O)Nc2c(O)c3c(c(F)c2CN1C)C[C@H]1C[C@H]2[C@H](N(C)C)C(O)=C(C(N)=O)C(=O)[C@@]2(O)C(O)=C1C3=O` [Compound 428], for which, in the assay on S. aureus Smith, the responders at 3 mg/kg is 50% and the responders at 30 mg/kg turned out to be 0%.
Taken in the same sequence, the figures for `CN(C)[C@@H]1C(O)=C(C(N)=O)C(=O)[C@@]2(O)C(O)=C3C(=O)c4c(O)c5c(c(Cl)c4C[C@H]3C[C@@H]12)CN(C(C)(C)C)C5` [Compound 144] were 50% and 0%.
For the compound `CN(C)CC(=O)N1Cc2c(O)c3c(c(F)c2C1)C[C@H]1C[C@H]2[C@H](N(C)C)C(O)=C(C(N)=O)C(=O)[C@@]2(O)C(O)=C1C3=O` [Compound 131], in the assay on S. aureus Smith, the responders at 3 mg/kg is 100% and the responders at 30 mg/kg was found to be 17%.
As for `CC[C@@H](C)N1Cc2c(O)c3c(c(F)c2C1)C[C@H]1C[C@H]2[C@H](N(C)C)C(O)=C(C(N)=O)C(=O)[C@@]2(O)C(O)=C1C3=O` [Compound 130], in the assay with S. aureus Smith, the responders at 3 mg/kg is 33% and the responders at 30 mg/kg stood at 83%.
Turning to `CN(C)[C@@H]1C(O)=C(C(N)=O)C(=O)[C@@]2(O)C(O)=C3C(=O)c4c(O)c5c(c(F)c4C[C@H]3C[C@@H]12)CN1CCCC[C@@H]1C(=O)N5` [Compound 410], in the assay with S. aureus Smith, the responders at 3 mg/kg was determined as 100% and the responders at 30 mg/kg stood at 50%.
As to `CCCN1Cc2c(O)c3c(c(Cl)c2C1)C[C@H]1C[C@H]2[C@H](N(C)C)C(O)=C(C(N)=O)C(=O)[C@@]2(O)C(O)=C1C3=O` [Compound 149], in the assay on S. aureus Smith, the responders at 3 mg/kg was determined as 17% and the responders at 30 mg/kg was 0%.
Taken in the same sequence, the figures for `C[C@@H]1C(=O)Nc2c(O)c3c(c(F)c2CN1C)C[C@H]1C[C@H]2[C@H](N(C)C)C(O)=C(C(N)=O)C(=O)[C@@]2(O)C(O)=C1C3=O` [Compound 406] were 100% and 40%.
In the case of `CC(C)[C@@H](C)N1Cc2c(O)c3c(c(F)c2C1)C[C@H]1C[C@H]2[C@H](N(C)C)C(O)=C(C(N)=O)C(=O)[C@@]2(O)C(O)=C1C3=O` [Compound 106], in the assay with S. aureus Smith, the responders at 3 mg/kg is 17% and the responders at 30 mg/kg is 20%.
Consider `COc1c2c(c(O)c3c1C[C@H]1C[C@H]4[C@H](N(C)C)C(O)=C(C(N)=O)C(=O)[C@@]4(O)C(O)=C1C3=O)CN(C(C)(C)C)C2` [Compound 125], for which, in the assay with S. aureus Smith, the responders at 3 mg/kg amounted to 100% and the responders at 30 mg/kg turned out to be 33%.
